The text below walks through data of patent US20260207602A1, “EGFR INHIBITORS” (Blueprint Medicines Corporation, priority 2022, published 2026).

As usually defined, the IC50 is the concentration that gives 50% inhibition.

Molecules are shown by their SMILES. Bounds are passed on as bounds.

In assay [1] the target is intracellular phosphorylation of EGFR (Tyr1068) in PC-9 cells (Homo sapiens, UniProt P00533, DEL746-750). The experiment in a line: PC-9 pEGFR AlphaLISA assay. The assay is classed as cell-based. The settings on record: 4 hours incubation, read-out: Phos EGFR PC9 IC50. In short, it runs like this:
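PC-9 cells (EGFR del746-750) in phenol-free DMEM/10% FBS, adhered overnight, then exposed to 10-point 4-fold compound dilutions for 4 h at 37 °C. Lysates assayed for pEGFR Tyr1068 by AlphaLISA SureFire Ultra; IC50 from percent pEGFR inhibition vs log concentration.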
Background: In Alpha technology, singlet oxygen from a donor bead excites a nearby acceptor bead.

Another assay deals with T1, EGFR L858R (Homo sapiens, UniProt P00533, L858R).
T1 construct: purchased SignalChem E10-122BG
The experiment in a line: Biochemical EGFR inhibition assay (Caliper mobility shift), EGFR L858R. The following applies: biochemical Caliper mobility shift assay, EGFR L858R enzyme; read-out: Enz EGFR L858R IC50. In a few lines:
(§1)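 Compounds were titrated against enzyme phosphorylating a 5-FAM peptide (2.5 µM) in 100 mM HEPES, pH 7.5, 10 mM MgCl2, 1 mM DTT. ATP was held at 1.0 mM or at Km, and reactions ran at 25 °C until 10–20% conversion before EDTA quench. Apparent IC50 values come from percent activity plotted against log concentration.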

Another assay concerns the target T2, EGFR (d746-750) (Homo sapiens, UniProt P00533, DEL746-750).
T2 construct: purchased SignalChem E10-122JG
The assay is described as follows: Biochemical EGFR inhibition assay (Caliper mobility shift), EGFR (d746-750). The settings on record: biochemical Caliper mobility shift assay, EGFR Exon 19-del enzyme; read-out: Enz EGFR Exon 19-del IC50. In short, it runs like this: as §1

Sequence of intracellular phosphorylation of EGFR (Tyr1068) in PC-9 cells (P00533 with tags, fused parts or gaps DEL746-750): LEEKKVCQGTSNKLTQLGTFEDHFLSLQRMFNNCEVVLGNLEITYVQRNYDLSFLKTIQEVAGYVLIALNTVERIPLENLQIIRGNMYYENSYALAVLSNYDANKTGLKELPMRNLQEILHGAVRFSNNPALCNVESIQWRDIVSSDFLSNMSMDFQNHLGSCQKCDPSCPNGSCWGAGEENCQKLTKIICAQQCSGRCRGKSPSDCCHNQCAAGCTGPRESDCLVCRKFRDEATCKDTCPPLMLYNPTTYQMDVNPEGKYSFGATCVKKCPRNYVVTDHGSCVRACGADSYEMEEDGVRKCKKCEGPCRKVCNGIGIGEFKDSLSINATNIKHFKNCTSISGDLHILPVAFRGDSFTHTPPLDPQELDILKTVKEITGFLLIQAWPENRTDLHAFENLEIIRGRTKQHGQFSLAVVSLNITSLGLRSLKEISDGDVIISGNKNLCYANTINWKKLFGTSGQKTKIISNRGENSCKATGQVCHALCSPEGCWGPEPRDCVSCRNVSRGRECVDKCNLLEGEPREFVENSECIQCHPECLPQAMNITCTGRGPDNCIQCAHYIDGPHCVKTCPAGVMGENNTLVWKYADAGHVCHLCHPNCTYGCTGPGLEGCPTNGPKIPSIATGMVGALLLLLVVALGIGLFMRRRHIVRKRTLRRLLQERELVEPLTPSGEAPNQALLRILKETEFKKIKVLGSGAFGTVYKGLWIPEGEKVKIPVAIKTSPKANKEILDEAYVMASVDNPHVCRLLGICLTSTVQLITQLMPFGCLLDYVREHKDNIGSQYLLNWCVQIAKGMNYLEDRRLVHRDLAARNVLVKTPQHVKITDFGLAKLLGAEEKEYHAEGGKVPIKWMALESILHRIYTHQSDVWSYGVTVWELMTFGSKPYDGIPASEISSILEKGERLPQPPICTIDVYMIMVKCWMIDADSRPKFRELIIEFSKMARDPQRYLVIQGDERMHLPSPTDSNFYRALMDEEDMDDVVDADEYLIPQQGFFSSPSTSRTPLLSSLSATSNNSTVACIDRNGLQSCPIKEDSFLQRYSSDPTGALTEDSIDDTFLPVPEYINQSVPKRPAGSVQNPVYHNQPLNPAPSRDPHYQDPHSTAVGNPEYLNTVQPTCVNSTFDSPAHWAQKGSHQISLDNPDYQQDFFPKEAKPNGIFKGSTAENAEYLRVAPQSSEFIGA
T1 sequence (P00533 25-1210 L858R): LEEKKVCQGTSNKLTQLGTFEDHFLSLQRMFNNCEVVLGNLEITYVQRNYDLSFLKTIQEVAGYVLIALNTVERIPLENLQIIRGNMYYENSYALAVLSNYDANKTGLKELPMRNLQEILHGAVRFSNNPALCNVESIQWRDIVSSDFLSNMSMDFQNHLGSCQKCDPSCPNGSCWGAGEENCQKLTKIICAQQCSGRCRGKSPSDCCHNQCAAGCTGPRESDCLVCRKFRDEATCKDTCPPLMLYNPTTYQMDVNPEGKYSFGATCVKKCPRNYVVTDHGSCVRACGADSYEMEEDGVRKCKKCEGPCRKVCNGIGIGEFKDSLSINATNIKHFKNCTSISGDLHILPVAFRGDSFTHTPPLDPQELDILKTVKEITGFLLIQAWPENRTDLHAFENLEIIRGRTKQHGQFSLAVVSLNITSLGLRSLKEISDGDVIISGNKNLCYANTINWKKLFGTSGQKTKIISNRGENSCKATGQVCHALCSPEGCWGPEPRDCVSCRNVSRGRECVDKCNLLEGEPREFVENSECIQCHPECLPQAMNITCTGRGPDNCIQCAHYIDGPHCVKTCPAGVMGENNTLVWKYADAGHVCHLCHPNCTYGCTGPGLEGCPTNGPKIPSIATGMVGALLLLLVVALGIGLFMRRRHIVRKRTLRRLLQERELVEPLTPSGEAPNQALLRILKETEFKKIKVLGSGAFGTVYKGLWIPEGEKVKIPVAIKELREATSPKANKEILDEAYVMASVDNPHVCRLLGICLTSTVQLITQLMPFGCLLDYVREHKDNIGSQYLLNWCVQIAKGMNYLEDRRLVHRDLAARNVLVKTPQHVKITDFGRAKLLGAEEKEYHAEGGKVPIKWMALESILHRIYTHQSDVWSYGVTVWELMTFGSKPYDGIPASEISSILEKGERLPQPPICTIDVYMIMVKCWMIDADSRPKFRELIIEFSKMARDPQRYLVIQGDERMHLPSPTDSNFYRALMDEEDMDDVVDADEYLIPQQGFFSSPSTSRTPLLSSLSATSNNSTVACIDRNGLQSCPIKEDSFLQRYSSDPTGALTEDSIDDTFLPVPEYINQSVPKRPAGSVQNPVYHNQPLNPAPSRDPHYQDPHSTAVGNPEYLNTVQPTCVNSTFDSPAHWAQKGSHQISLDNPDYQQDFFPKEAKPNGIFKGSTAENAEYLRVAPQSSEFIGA
T2 sequence (P00533 with tags, fused parts or gaps DEL746-750 limits assumed): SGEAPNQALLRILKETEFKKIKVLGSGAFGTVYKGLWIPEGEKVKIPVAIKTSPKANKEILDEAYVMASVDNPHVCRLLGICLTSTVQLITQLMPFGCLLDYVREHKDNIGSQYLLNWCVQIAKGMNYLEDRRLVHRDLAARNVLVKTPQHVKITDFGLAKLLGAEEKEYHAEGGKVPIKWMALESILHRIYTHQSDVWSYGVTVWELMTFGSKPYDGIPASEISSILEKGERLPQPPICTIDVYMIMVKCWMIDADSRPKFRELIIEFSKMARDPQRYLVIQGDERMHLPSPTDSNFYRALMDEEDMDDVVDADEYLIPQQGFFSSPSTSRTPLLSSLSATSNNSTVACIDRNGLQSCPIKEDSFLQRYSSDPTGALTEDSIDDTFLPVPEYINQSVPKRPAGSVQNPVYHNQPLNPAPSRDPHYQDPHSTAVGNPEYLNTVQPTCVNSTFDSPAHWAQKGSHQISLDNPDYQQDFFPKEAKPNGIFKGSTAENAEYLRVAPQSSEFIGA

On to `Cn1cc(-c2cc(OCCO)c3c(Nc4ccc5ncsc5c4)ncnc3c2)cn1` [Example 30, 2-((4-(benzo[d]thiazol-6-ylamino)-7-(1-methyl-1H-pyrazol-4-yl)quinazolin-5-yl)oxy)ethan-1-ol], for which the IC50 is 10.1 to 50 nM in assay [1], no more than 10 nM on EGFR L858R and no more than 10 nM at EGFR (d746-750).
`COc1nn(C)cc1-c1cc(O[C@H](C)C2COC2)c2c(Nc3ccc4ncsc4c3F)ncnc2c1` (single isomer, unassigned) [Example 78]: the IC50 (in assay [1]; at EGFR L858R; at EGFR (d746-750)) was no more than 10 nM each time.
For the compound `COc1nn(C)cc1-c1cc(O[C@H]2CN(C)C[C@@H]2F)c2c(Nc3ccc4ncsc4c3)ncnc2c1` (single isomer, unassigned) [Example 377], the IC50 (in assay [1]; at EGFR L858R; at EGFR (d746-750)) was 10.1 to 50 nM each time.
Regarding `COc1nn(C)cc1-c1cc(O[C@@H](C)C(=O)N(C)C)c2c(Nc3ccc4ncsc4c3F)ncnc2c1` (single isomer, unassigned) [Example 287], the IC50 (in assay [1]; at EGFR L858R; on EGFR (d746-750)) was no more than 10 nM throughout.
With `COc1cc2ncnc(Nc3ccc4ncsc4c3)c2cc1-c1cnn(C2CCN(C)CC2)c1` [Example 163, N-(7-methoxy-6-(1-(1-methylpiperidin-4-yl)-1H-pyrazol-4-yl)quinazolin-4-yl)benzo[d]thiazol-6-amine], the IC50 (in assay [1]; on EGFR L858R; at EGFR (d746-750)) was no more than 10 nM throughout.
In the case of `COc1cc2ncnc(Nc3ccc4ncsc4c3)c2cc1-c1cnn(C)c1` [Example 132, N-(7-methoxy-6-(1-methyl-1H-pyrazol-4-yl)quinazolin-4-yl)benzo[d]thiazol-6-amine], the IC50 (in assay [1]; on EGFR L858R; at EGFR (d746-750)) was no more than 10 nM each time.
In the case of `COc1nn(C)cc1-c1cc(OC2CCN(C)CC2)c2c(Nc3ccc4ncsc4c3F)ncnc2c1` [Example 320, 7-fluoro-N-(7-(3-methoxy-1-methyl-1H-pyrazol-4-yl)-5-((1-methylpiperidin-4-yl)oxy)quinazolin-4-yl)benzo[d]thiazol-6-amine], the IC50 in assay [1] was 10.1 to 50 nM; on EGFR L858R it was no more than 10 nM; at EGFR (d746-750), no more than 10 nM.
As to `CN1CC[C@@H](Oc2cc(-c3cnn(C)c3)cc3ncnc(Nc4ccc5ncsc5c4)c23)[C@@H](F)C1` (single isomer, unassigned) [Example 340], the IC50 (in assay [1]; at EGFR L858R; at EGFR (d746-750)) was no more than 10 nM throughout.
In the case of `CN1CC[C@H](Oc2cc(-c3cnn(C)c3)cc3ncnc(Nc4ccc5ncsc5c4)c23)C[C@H]1CO` [Example A07, ((2S,4S)-4-((4-(benzo[d]thiazol-6-ylamino)-7-(1-methyl-1H-pyrazol-4-yl)quinazolin-5-yl)oxy)-1-methylpiperidin-2-yl)methanol], the results for the IC50 (in assay [1]; at EGFR L858R; on EGFR (d746-750)) were 10.1 to 50 nM, no more than 10 nM and no more than 10 nM, respectively.
With `Cn1cc(-c2cc(OC3CC3)c3c(Nc4ccc5ncsc5c4)ncnc3c2)cn1` [Example 259, N-(5-cyclopropoxy-7-(1-methyl-1H-pyrazol-4-yl)quinazolin-4-yl)benzo[d]thiazol-6-amine], the IC50 (in assay [1]; at EGFR L858R; at EGFR (d746-750)) was no more than 10 nM throughout.
For `C[C@H](CN1CCC1)Oc1cc(-c2cnn(C)c2)cc2ncnc(Nc3ccc4ncsc4c3)c12` [Example 394, (R)-N-(5-((1-(azetidin-1-yl)propan-2-yl)oxy)-7-(1-methyl-1H-pyrazol-4-yl)quinazolin-4-yl)benzo[d]thiazol-6-amine], the IC50 (in assay [1]; at EGFR L858R; at EGFR (d746-750)) was no more than 10 nM each time.
In the case of `C[C@@H](Oc1cc(N2CCN(C)CC2)cc2ncnc(Nc3ccc4ncsc4c3)c12)C1COC1` (single isomer, unassigned) [Example 97], the IC50 in assay [1] is 10.1 to 50 nM; at EGFR L858R, 10.1 to 50 nM; on EGFR (d746-750), no more than 10 nM.
For `CO[C@H]1COC[C@@H]1Oc1cc(-c2cnn(C)c2)cc2ncnc(Nc3ccc4ncsc4c3)c12` (single isomer, unassigned) [Example A31], the IC50 in assay [1] was 10.1 to 50 nM; at EGFR L858R it was no more than 10 nM; on EGFR (d746-750) it was no more than 10 nM.
For the compound `C[C@H](CN(C)C)Oc1cc(N2CC3CC(C2)O3)cc2ncnc(Nc3ccc4ncsc4c3F)c12` [Example 176, N-(7-(6-oxa-3-azabicyclo[3.1.1]heptan-3-yl)-5-(((R)-1-(dimethylamino)propan-2-yl)oxy)quinazolin-4-yl)-7-fluorobenzo[d]thiazol-6-amine], the IC50 in assay [1] was no more than 10 nM; on EGFR L858R it was 10.1 to 50 nM; at EGFR (d746-750), no more than 10 nM.
`CCN1CC[C@H](Oc2cc(-c3cnn(C)c3)cc3ncnc(Nc4ccc5ncsc5c4)c23)C1=O` (single isomer, unassigned) [Example 59, (S)-3-((4-(benzo[d]thiazol-6-ylamino)-7-(1-methyl-1H-pyrazol-4-yl)quinazolin-5-yl)oxy)-1-ethylpyrrolidin-2-one or (R)-3-((4-(benzo[d]thiazol-6-ylamino)-7-(1-methyl-1H-pyrazol-4-yl)quinazolin-5-yl)oxy)-1-ethylpyrrolidin-2-one]: the IC50 (in assay [1]; at EGFR L858R; on EGFR (d746-750)) was no more than 10 nM in each case.
For the compound `C[C@@H](Oc1cc(-c2cn(C)n(C(F)F)c2=O)cc2ncnc(Nc3ccc4ncsc4c3)c12)C1COC1` (single isomer, unassigned) [Example 175], the IC50 in assay [1] was 10.1 to 50 nM; at EGFR L858R, no more than 10 nM; at EGFR (d746-750) it was no more than 10 nM.
For the compound `COC[C@@H](C)Oc1cc(N2CCN3CCC[C@@H]3C2)cc2ncnc(Nc3ccc4ncsc4c3)c12` [Example 192, N-(7-((R)-hexahydropyrrolo[1,2-a]pyrazin-2(1H)-yl)-5-(((R)-1-methoxypropan-2-yl)oxy)quinazolin-4-yl)benzo[d]thiazol-6-amine], the IC50 in assay [1] is 10.1 to 50 nM; on EGFR L858R it was no more than 10 nM; at EGFR (d746-750), no more than 10 nM.
With `C[C@@H](Oc1cc(N2CCN(C)[C@@H](C)C2)cc2ncnc(Nc3ccc4ncsc4c3F)c12)C1COC1` (single isomer, unassigned) [Example 99], the IC50 is 10.1 to 50 nM in assay [1], 10.1 to 50 nM at EGFR L858R and no more than 10 nM at EGFR (d746-750).
Regarding `Cn1cc(-c2cc(O[C@@H]3C[C@@H](O)[C@@H](O)C3)c3c(Nc4ccc5ncsc5c4)ncnc3c2)cn1` (single isomer, unassigned) [Example A22], the half-inhibitory concentration (IC50) in assay [1] is 10.1 to 50 nM; on EGFR L858R, no more than 10 nM; at EGFR (d746-750), no more than 10 nM.
On to `COc1nn(C)cc1-c1cc(O[C@H]2CN(C)C[C@H]2F)c2c(Nc3ccc4ncsc4c3)ncnc2c1` (single isomer, unassigned) [Example 374], for which the IC50 in assay [1] was 10.1 to 50 nM; at EGFR L858R it was no more than 10 nM; at EGFR (d746-750) it was no more than 10 nM.
`Cn1cc(-c2cc(OCC3(C)COC3)c3c(Nc4ccc5ncsc5c4)ncnc3c2)cn1` [Example 49, N-(7-(1-methyl-1H-pyrazol-4-yl)-5-((3-methyloxetan-3-yl)methoxy)quinazolin-4-yl)benzo[d]thiazol-6-amine]: the IC50 was 10.1 to 50 nM in assay [1], no more than 10 nM at EGFR L858R and no more than 10 nM at EGFR (d746-750).
For the compound `COc1cn(C)nc1-c1cc(O[C@H](C)C2COC2)c2c(Nc3ccc4ncsc4c3F)ncnc2c1` (single isomer, unassigned) [Example 81], the IC50 in assay [1] is 10.1 to 50 nM; on EGFR L858R it was no more than 10 nM; on EGFR (d746-750), no more than 10 nM.
Take `CN(C)C[C@H](Oc1cc(-c2cnn(C)c2)cc2ncnc(Nc3ccc4ncsc4c3)c12)C(F)(F)F` (single isomer, unassigned) [Example 179]: the IC50 was greater than 50.1 nM in assay [1], greater than 50.1 nM at EGFR L858R and 10.1 to 50 nM on EGFR (d746-750).
As for `COc1cc2ncnc(Nc3ccc4ncsc4c3)c2cc1-c1cnn([C@H]2CCNC[C@@H]2F)c1` (racemic) [Example 168, trans-N-(6-(1-((3S,4S)-3-fluoropiperidin-4-yl)-1H-pyrazol-4-yl)-7-methoxyquinazolin-4-yl)benzo[d]thiazol-6-amine], the concentration for half-maximal inhibition (IC50) was 10.1 to 50 nM in assay [1], no more than 10 nM on EGFR L858R and no more than 10 nM at EGFR (d746-750).
As to `CO[C@@H]1CNCC[C@H]1Oc1cc(-c2cnn(C)c2)cc2ncnc(Nc3ccc4ncsc4c3)c12` (single isomer, unassigned) [Example A41], the IC50 was 10.1 to 50 nM in assay [1], no more than 10 nM at EGFR L858R and no more than 10 nM on EGFR (d746-750).
Turning to `CN1CC[C@@H](Oc2cc(-c3cnn(C)c3)cc3ncnc(Nc4ccc5ncsc5c4)c23)[C@@H](F)C1` (racemic) [Example 339, cis-N-(5-(((3S,4R)-3-fluoro-1-methylpiperidin-4-yl)oxy)-7-(1-methyl-1H-pyrazol-4-yl)quinazolin-4-yl)benzo[d]thiazol-6-amine], the IC50 (in assay [1]; at EGFR L858R; at EGFR (d746-750)) was no more than 10 nM each time.
As for `Cn1cc(-c2cc(OC3COCC3(F)F)c3c(Nc4ccc5ncsc5c4)ncnc3c2)cn1` (stereo not drawn) [Example 14, N-(5-((4,4-difluorotetrahydrofuran-3-yl)oxy)-7-(1-methyl-1H-pyrazol-4-yl)quinazolin-4-yl)benzo[d]thiazol-6-amine], the IC50 is 10.1 to 50 nM in assay [1], no more than 10 nM at EGFR L858R and no more than 10 nM at EGFR (d746-750).
